Experimental data as given in publication PMC5874704, “In Silico Study, Synthesis, and Cytotoxic Activities of Porphyrin Derivatives” (Pharmaceuticals, 2018).

Assays:
[1] = system: HeLa cell line; assay: MTT cytotoxicity test, HeLa; format: cell-based; details: Homo sapiens, 24 h treatment, triplicate, read-out: IC50 (μM) ± SD HeLa
Procedure: (§1) The human epithelioid cervix carcinoma cell line (HeLa), human ductal breast epithelial tumor cell line (T47D), Michigan Cancer Foundation-7 cell line (MCF-7), human colon carcinoma cell line (WIDR), hepatoblastoma-derived cell line (HepG2), and Vero cell line (derived from kidney of African green monkey) were purchased from ATCC by the Faculty of Medicine Gadjah Mada University. The cell lines were cultured in Dulbecco’s Modified Eagle Medium (DMEM, Gibco), except for Vero cell line, which was cultured in Medium-199 (M-199, Gibco). Other chemicals, i.e., potassium dihydrogen phosphate, sodium chloride, potassium chloride, sodium hydrogen phosphate, dimethyl sulfoxide, sodium dodecyl sulphate, HEPES, sodium bicarbonate, and 3-(4,5-dimetiltiazol-2-il)-2,5-difeniltetrazolium bromide (MTT) were purchased from Sigma-Aldrich. Fetal bovine serum, trypsin-EDTA 0.25%, and penicillin-streptomycin were purchased from Gibco, whereas Amphotericin B was purchased from Caisson. Phosphate-buffered saline (PBS) was obtained by mixing 0.2 g of KH2PO4, 8 g of NaCl, 0.2 g of KCl, 1.15 g of Na2HPO4, and 1 L of distilled water.
(§2) Confluent cells in the Petri dish was harvested by removing the growth media in Petri dish and adding 1 mL of trypsin-EDTA […]. Then the cells was incubated at incubator 37 °C, 5% CO2 for about three minutes. The suspension of cells was put in centrifuge tube, 2 mL of growth media was added with 7 mL of PBS. The mixture was centrifuged for 10 min at 1200 rpm. The supernatant was separated and 2–3 mL of growth media was added to the pellet cell for counting cell. The cell suspense was cultured in 96-well plates (10,000 cells/well). After 24 h, the porphyrin derivative compounds with series concentration were added to treat the cell cultures for another 24 h. The cells were treated by MTT solution for four hours at incubator (37 °C, 5% CO2) and the reaction was stopped by stopper solution (SDS 10% HCl). The plate was incubated at room temperature in dark condition for 24 h. The living cells were counted by reading the absorbance at 595 nm. The corresponding IC50 values were calculated using non-linear regression analysis (GraphPad Prism 7.0.3). Each test was run in triplicate.

[2] = system: WIDR cell line; assay: MTT cytotoxicity test, WIDR; format: cell-based; details: Homo sapiens, 24 h treatment, triplicate, read-out: IC50 (μM) ± SD WIDR
Procedure: as §1, §2

[3] = system: HepG2 cell line; assay: MTT cytotoxicity test, HepG2; format: cell-based; details: Homo sapiens, 24 h treatment, triplicate, read-out: IC50 (μM) ± SD HepG2
Procedure: as §1, §2

[4] = system: T47D cell line; assay: MTT cytotoxicity test, T47D; format: cell-based; details: Homo sapiens, 24 h treatment, triplicate, read-out: IC50 (μM) ± SD T47D
Procedure: as §1, §2

[5] = system: MCF-7 cell line; assay: MTT cytotoxicity test, MCF-7; format: cell-based; details: Homo sapiens, MCF7, 24 h treatment, triplicate, read-out: IC50 (μM) ± SD MCF-7
Procedure: as §1, §2

[6] = system: Vero cell line; assay: MTT cytotoxicity test, Vero (normal cells); format: cell-based, African green monkey; details: Chlorocebus sabaeus, 24 h treatment, triplicate, read-out: IC50 (μM) ± SD Vero
Procedure: as §1, §2

melting point [°C]	Structure (SMILES)	IC50 [1] [µM]	IC50 [2] [µM]	IC50 [3] [µM]	IC50 [4] [µM]	IC50 [5] [µM]	IC50 [6] [µM]
> 300	Cc1ccc(-c2c3nc(c(-c4ccc(C)cc4)c4ccc([nH]4)c(-c4ccc(C)cc4)c4nc(c(-c5ccc(C)cc5)c5ccc2[nH]5)C=C4)C=C3)cc1 [TTP, 5,10,15,20-tetrakis(p-tolyl)porphyrin]	714.6 ± 1.1	969.8 ± 1.2	1120 ± 1.3	1241 ± 1.2	1305 ± 1.3	15600
> 300	Cc1ccc(-c2c3nc(c(-c4ccc(C)cc4)c4ccc([nH]4)c(-c4ccc(N)cc4)c4nc(c(-c5ccc(C)cc5)c5ccc2[nH]5)C=C4)C=C3)cc1 [TrTMAP, 5,10,15-tris(tolyl)-20-mono(p-aminophenyl)porphyrin]	593.1 ± 1.2	835.4 ± 1.3	107 ± 1.3	1099 ± 1.3	328.4 ± 1.4	4784 ± 1.2
> 300	Cc1ccc(-c2c3nc(c(-c4ccc(C)cc4)c4ccc([nH]4)c(-c4ccc([N+](=O)[O-])cc4)c4nc(c(-c5ccc(C)cc5)c5ccc2[nH]5)C=C4)C=C3)cc1 [TrTMNP, 5,10,15-tris(tolyl)-20-mono(p-nitrophenyl)porphyrin]	226.1 ± 1.1	897.5 ± 1.1	146.6 ± 1.2	5372 ± 1.4	505.2 ± 1.2	10100

More lines, now with the values behind:

Structure (SMILES)	melting point [°C]	IC50 [1] [µM]	IC50 [2] [µM]	IC50 [3] [µM]	IC50 [4] [µM]	IC50 [5] [µM]	IC50 [6] [µM]
CCOC(=O)COc1ccc(-c2c3nc(c(-c4cnn(C)c4)c4ccc([nH]4)c(-c4ccc(OCC(=O)OCC)c(OCC(=O)OCC)c4)c4nc(c(-c5cnn(C)c5)c5ccc2[nH]5)C=C4)C=C3)cc1OCC(=O)OCC [DBECPDPzP, 5,15-di-[bis(3,4-ethylcarboxymethylenoxy)phenyl]-10,20-di-(methylpyrazole-4-yl)porphyrin]	–	941.9 ± 1.2	34.1 ± 1.1	31.7 ± 1.2	177.8 ± 1.2	64.2 ± 1.1	363.4 ± 1.1
CCOC(=O)COc1ccc(-c2c3nc(c(-c4ccc(C)cc4)c4ccc([nH]4)c(-c4ccc(OCC(=O)OCC)c(OCC(=O)OCC)c4)c4nc(c(-c5ccc(C)cc5)c5ccc2[nH]5)C=C4)C=C3)cc1OCC(=O)OCC [DBECPDTP, 5,15-di-[bis(3,4-ethylcarboxymethylenoxy)phenyl]-10,20-di(p-tolyl)porphyrin]	–	201.7 ± 1.3	33.5 ± 1.1	37.2 ± 1.1	166.7 ± 1.3	42.1 ± 1.1	372.2 ± 1.1
Nc1ccc(-c2c3nc(c(-c4ccc(N)cc4)c4ccc([nH]4)c(-c4ccc(N)cc4)c4nc(c(-c5ccc(N)cc5)c5ccc2[nH]5)C=C4)C=C3)cc1 [TAPP, 5,10,15,20-tetrakis(p-aminophenyl)porphyrin]	–	1007 ± 1.1	205.1 ± 1.2	36 ± 1.2	332.6 ± 1.2	262.2 ± 1.3	2264 ± 1.2
Brc1ccc(-c2c3nc(c(-c4ccc(Br)cc4)c4ccc([nH]4)c(-c4ccc(Br)cc4)c4nc(c(-c5ccc(Br)cc5)c5ccc2[nH]5)C=C4)C=C3)cc1 [TBrPP, 5,10,15,20-tetrakis(p-bromophenyl)porphyrin]	> 300	595.6 ± 1.3	772.7 ± 1.3	882.7 ± 1.2	443.9 ± 1.1	870.6 ± 1.3	1176 ± 1.1
CCOC(=O)COc1ccc(-c2c3nc(c(-c4ccc(OCC(=O)OCC)c(OCC(=O)OCC)c4)c4ccc([nH]4)c(-c4cnn(C)c4)c4nc(c(-c5cnn(C)c5)c5ccc2[nH]5)C=C4)C=C3)cc1OCC(=O)OCC [cDBECPDPzP, 5,10-di-[bis(3,4-ethylcarboxymethylenoxy)phenyl]-15,20-di-(methylpyrazole-4-yl)porphyrin]	–	1083 ± 1.2	28.9 ± 1.1	28.6 ± 1.2	164.5 ± 1.2	47.9 ± 1.1	548.8 ± 1.2
